Results as given in patent US5462926A (Biomeasure, Inc., priority 1993, dated 1995).
Read-outs that look alike come from different tables or passages of the source. Where a SMILES comes first, the peptide text is derived from it. Bridges are numbered along the chain shown (N, C = ends). [ ]: non-standard residue; d: D form. 2Nal = N[C@@H](Cc1ccc2ccccc2c1)C(=O)O; d2Nal = N[C@H](Cc1ccc2ccccc2c1)C(=O)O

What was measured:
[1] = biological target: T1, mu opioid receptors (Rattus norvegicus, UniProt P33535); experiment: Mu opioid membrane assay, [3H]DAGO, rat forebrain membranes; type: binding; details: Cheng method; unit inferred; read-out: affinity, [3H]DAGO, Rat Forebrain membranes (mu opioid receptors)
T1 construct: rat forebrain (TRH, mu and delta opioid membrane assays); from tissue; host or cells: rat forebrain membranes

[2] = biological target: GRP receptor (Rattus norvegicus, UniProt P52500); experiment: GRP membrane receptor assay, 125I-[Tyr4]Bn, AR 42J cell membranes; type: binding; set-up: endogenous in cells; host or cells: rat AR 42J pancreatic acinar tumor cell membranes; details: read-out: affinity, 125I-[Tyr4]Bn, AR 42J Cell Membranes (GRP receptors); Cheng method; unit inferred
[3] = biological target: T2, NMB receptor (Rattus norvegicus, UniProt P24053); experiment: [3H]inositol phosphates in NMB-R transfected cells (alone or NMB-stimulated); type: cell-based; set-up: a full length NMB-preferring bombesin receptor clone generated from rat esophagus; expressed in transfected cells; details: NMB-R transfected cells; for IC50 / effect at 10 μM on NMB-stimulated increase in [3H]IP: 3 nM NMB; for [3H]IP, analog Alone (10 μM): analog 10 μM alone, control 13 ± 3; for [3H]IP, analog Plus NMB (3 nM): analog 10 μM plus NMB 3 nM, NMB without analog 186 ± 58
T2 sequence (P24053 1-390): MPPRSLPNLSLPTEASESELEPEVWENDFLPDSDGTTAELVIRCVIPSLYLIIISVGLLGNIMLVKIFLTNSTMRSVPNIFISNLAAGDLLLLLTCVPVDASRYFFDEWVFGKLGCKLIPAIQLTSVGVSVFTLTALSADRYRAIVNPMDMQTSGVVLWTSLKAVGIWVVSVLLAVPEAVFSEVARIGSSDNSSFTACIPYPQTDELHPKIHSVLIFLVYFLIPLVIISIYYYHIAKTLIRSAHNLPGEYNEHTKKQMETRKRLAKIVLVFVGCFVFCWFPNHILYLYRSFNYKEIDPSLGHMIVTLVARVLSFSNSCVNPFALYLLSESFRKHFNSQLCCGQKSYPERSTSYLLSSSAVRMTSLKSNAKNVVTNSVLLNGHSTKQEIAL
Method: As described previously [Wada, E., et al. Neuron 6:421 (1991)], BALB 3T3 cells expressing a stably transfected rat NMB receptor (NMB-R transfected cells) were obtained using calcium phosphate precipitation of a full length NMB-preferring bombesin receptor clone generated from rat esophagus and subcloned into a modified version of the pCD2 plasmid. Cells were passaged every 3-4 days at confluence, using 0.1% trypsin in 1 mM EDTA. Rat glioblastoma C-6 tumor cells were maintained similarly and were passaged weekly at confluence. Both cell lines were cultured at 37° C. in a 5% CO2 atmosphere. Rat AR 42J pancreatic acinar cells were cultured in Dulbecco's modified Eagle's medium (DMEM) without antibiotics and supplemented with 10% (vol/vol) fetal calf serum. The incubation atmosphere consisted of 10% CO2 -90% humidified air at 37° C.
Measurement of phosphoinositides
(§1) Total phosphoinositides in C-6 cells and in NMB-R transfected cells were determined as described previously, with minor modifications [Benya, R. V. et al. Mol. Pharmacol. 42:1058 (1992); and Wang, L-H. et al. Biochem. Jo 286:641 (1992)]. Cells were grown to confluence in 24-well plates and then loaded with 100 μCi/ml myo-[2-^3 H]inositol in Dulbecco's modified essential medium with 2% fetal bovine serum at 37° C. for 48 hrs. Cells were washed and incubated in phosphoinositide buffer (standard buffer additionally containing 10 mM LiCl, 20 mM HEPES, 2 mM CaCl2, 2% BSA, and 1.2 mM MgSO4) for 15 min and then for 60 min at 37° C. with agonists at various concentrations or with 3 nM NMB (a half-maximal effective concentration) and possible antagonists at different concentrations. Reactions were halted using ice-cold 1% HCl in methanol, and the inositol phosphates (IP) were isolated as described previously [Bologna, M. et al. Cancer 63:1714 (1989); and Endo, T. et al. J. Endocrinolo 131:313 (1991)]. Briefly, after loading of the anion exchange column, free [^3 H]glycerophosphorylinositol was removed by washing with 5 mM disodium tetraborate in 60 mM sodium formate. Total [^3 H]inositol phosphates were then eluted using 100 mM formic acid in 1.0M ammonium formate as described previously [Benya, R. V. et al. Mol. Pharmacol. 42:1058 (1992); and Wang, L-H. et al. Biochem. J. 286:641 (1992 )].

[4] = biological target: T2, NMB receptor; experiment: NMB membrane receptor assay, 125I-NMB, rat olfactory bulb membranes; type: binding; set-up: Membranes were prepared from rat olfactory bulb (NMB membrane receptor assay); from tissue; host or cells: rat olfactory bulb membranes; details: for Ki: Cheng method, unit inferred, read-out: affinity, 125I-NMB, Rat Olfactory bulb membranes (neuromedin B receptors)
[5] = system: endothelin-1-stimulated increases in [3H]IP; experiment: Endothelin-1-stimulated [3H]IP in C-6 glioblastoma cells; type: cell-based, rat
Method: as §1
(§2) without SSoctapeptide analog added. C6 glioblastoma cells (50,000
(§3) cells/well) were incubated with myo[2^3 H]inositol for two days,
(§4) washed and then incubated with or without the indicated peptides for 60
(§5) minutes at 37° C. in phosphoinositide buffer containing 10 mM LiCl
(§6) as described in METHODS. [^3 H]IP was measured using Dowex AG1X8 anio

[6] = biological target: T2, NMB receptor; experiment: [3H]IP in C-6 glioblastoma cells (alone or NMB-stimulated); type: cell-based; set-up: a full length NMB-preferring bombesin receptor clone generated from rat esophagus; expressed in transfected cells
Method: as §1, §2, §3, §4, §5, §6

[7] = read-out: IC50 NMB-stimulated [3H]IP, NMB Receptor, Transfected Cells
[8] = read-out: IC50 NMB-stimulated [3H]IP, Transfected Cells (values in μM)

T1 sequence (P33535 whole entry): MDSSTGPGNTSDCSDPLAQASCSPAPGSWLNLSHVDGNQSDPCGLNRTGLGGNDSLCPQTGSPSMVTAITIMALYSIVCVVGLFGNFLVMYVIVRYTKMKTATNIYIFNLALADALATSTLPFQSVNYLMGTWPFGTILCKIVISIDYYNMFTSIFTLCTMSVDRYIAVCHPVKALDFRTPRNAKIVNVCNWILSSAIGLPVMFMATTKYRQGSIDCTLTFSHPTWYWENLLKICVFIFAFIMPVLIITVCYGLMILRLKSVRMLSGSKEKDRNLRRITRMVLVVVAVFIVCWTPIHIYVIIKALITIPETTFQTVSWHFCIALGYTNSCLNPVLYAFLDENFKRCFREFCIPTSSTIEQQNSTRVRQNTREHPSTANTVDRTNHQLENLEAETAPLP
Chain of GRP receptor (P52500 whole entry): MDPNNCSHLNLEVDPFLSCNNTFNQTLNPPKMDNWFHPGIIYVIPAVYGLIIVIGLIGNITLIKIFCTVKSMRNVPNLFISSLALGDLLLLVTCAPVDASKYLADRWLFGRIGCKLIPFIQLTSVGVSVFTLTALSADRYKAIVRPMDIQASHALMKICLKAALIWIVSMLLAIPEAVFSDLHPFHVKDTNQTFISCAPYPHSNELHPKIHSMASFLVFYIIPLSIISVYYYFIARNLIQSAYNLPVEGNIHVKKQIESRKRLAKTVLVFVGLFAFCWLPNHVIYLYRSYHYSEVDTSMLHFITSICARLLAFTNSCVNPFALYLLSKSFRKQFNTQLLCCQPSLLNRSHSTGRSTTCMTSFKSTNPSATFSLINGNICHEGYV

| SMILES | Ki [1] | Ki [2] | IC50 [3, 7] | [3H]IP, analog Alone (10 μM) [3] | [3H]IP, analog Plus NMB (3 nM) [3] | Ki [4] | effect on endothelin-1-stimulated increases in [3H]IP in C-6 cells [5] | [3H]IP with ET-1 (0.1 nM) ([5]; analog 10 μM, ET-1 alone 11.0 ± 2.1) | effect on NMB-stimulated increases in [3H]IP in C-6 cells [6] | [3H]IP, no peptide added ([6]; analog 10 μM, 60 min 37° C., control 7.2 ± 1.0) | [3H]IP with NMB (10 nM) ([6]; analog 10 μM, NMB alone 21.0 ± 1.8) | IC50 [3, 8] | fold higher affinity for NMB receptors than somatostatin receptors ([4]; membranes, Table 4) | effect at 10 μM on NMB-stimulated increase in [3H]IP [3] | fold greater affinity for NMB receptors than mu opioid receptors ([4]; membranes, Table 4) |
| --- | --- | --- | --- | --- | --- | --- | --- | --- | --- | --- | --- | --- | --- | --- | --- |
| CC(C)[C@@H]1NC(=O)[C@H](CCCCN)NC(=O)[C@@H](Cc2c[nH]c3ccccc23)NC(=O)[C@H](Cc2ccc(O)cc2)NC(=O)[C@@H](NC(=O)[C@H](N)Cc2ccc3ccccc3c2)CSSC[C@@H](C(=O)N[C@H](Cc2ccc3ccccc3c2)C(N)=O)NC1=O [Analog #8, H2 -D-Nal-Cys-Tyr-D-Trp-Lys-Val-Cys-D-Nal-NH2] (H-[d2Nal]CY[dW]KVC[d2Nal]-NH2; disulfide 2-7) | 0.28 µM | 4.1 ± 0.75 µM | 5.19 ± 0.987 µM | 10 ± 3 dym × 10^3 | 67 ± 13 dym × 10^3 | 1.48 ± 0.5 µM |  |  |  |  |  |  |  |  |  |
| C[C@@H](O)[C@H](NC(=O)[C@@H]1CSSC[C@H](NC(=O)[C@H](N)Cc2ccc3ccccc3c2)C(=O)N[C@@H](Cc2ccc(O)cc2)C(=O)N[C@H](Cc2c[nH]c3ccccc23)C(=O)N[C@@H](CCCCN)C(=O)N[C@@H](Cc2ccc3ccccc3c2)C(=O)N1)C(N)=O [Analog #2, H2 -D-Nal-Cys-Tyr-D-Trp-Lys-Nal-Cys-Thr-NH2] | 0.0019 ± 0.0007 µM | 0.95 ± 0.07 µM | 6.67 ± 0.435 µM | 11 ± 2 dym × 10^3 | 39 ± 7 dym × 10^3 | 0.085 ± 0.02 µM | no effect | 11.2 ± 1.9 dpm × 10^3 | inhibited | 7.3 ± 1.2 dpm × 10^3 | 14.3 ± 4.2 dpm × 10^3 |  |  |  |  |
| CC(C)[C@@H]1NC(=O)[C@H](CCCCN)NC(=O)[C@@H](Cc2c[nH]c3ccccc23)NC(=O)[C@H](Cc2ccc(O)cc2)NC(=O)[C@@H](NC(=O)[C@@H](N)Cc2ccc3ccccc3c2)CSSC[C@@H](C(=O)N[C@H](Cc2ccc3ccccc3c2)C(N)=O)NC1=O [Analog #9, H2 -Nal-Cys-Tyr-D-Trp-Lys-Val-Cys-D-Nal-NH2] (H-[2Nal]CY[dW]KVC[d2Nal]-NH2; disulfide 2-7) | 1.16 µM | 1.54 ± 0.18 µM | 4.41 ± 0.451 µM | 8 ± 2 dym × 10^3 | 28 ± 6 dym × 10^3 | 0.59 ± 0.17 µM |  |  |  |  |  |  |  |  |  |
| C[C@@H](O)[C@@H]1NC(=O)[C@H](CCCCN)NC(=O)[C@@H](Cc2c[nH]c3ccccc23)NC(=O)[C@H](Cc2ccc(O)cc2)NC(=O)[C@@H](NC(=O)[C@H](N)Cc2ccccc2)CSSC[C@@H](C(=O)N[C@@H](Cc2ccc3ccccc3c2)C(N)=O)NC1=O [Analog #7, H2 -D-phe-Cys-Tyr-D-Trp-Lys-Thr-Cys-Nal-NH2] (H-[dF]CY[dW]KTC[2Nal]-NH2; disulfide 2-7) | 0.2 µM | 0.75 ± 0.01 µM | 36.2 ± 4.97 µM | 15 ± 1 dym × 10^3 | 99 ± 24 dym × 10^3 | 0.74 ± 0.16 µM |  |  |  |  |  | > 10 µM |  |  |  |
| CC(C)[C@@H]1NC(=O)[C@H](Cc2c[nH]cn2)NC(=O)[C@@H](Cc2c[nH]c3ccccc23)NC(=O)[C@H](Cc2ccc(O)cc2)NC(=O)[C@@H](NC(=O)[C@H](N)Cc2ccc3ccccc3c2)CSSC[C@@H](C(=O)N[C@@H](Cc2ccc3ccccc3c2)C(N)=O)NC1=O [Analog #14] (H-[d2Nal]CY[dW]HVC[2Nal]-NH2; disulfide 2-7; N-terminus assumed) | 0.5 µM | 3.1 ± 0.7 µM | 11.9 ± 1.83 µM | 8 ± 1 dym × 10^3 | 97 ± 7 dym × 10^3 | 0.47 ± 0.24 µM |  |  |  |  |  |  | 3 fold |  |  |
| CC(C)[C@@H]1NC(=O)[C@H](CCCCN)NC(=O)[C@@H](Cc2c[nH]c3ccccc23)NC(=O)[C@H](Cc2ccc(O)cc2)NC(=O)[C@H](NC(=O)[C@H](N)Cc2ccc3ccccc3c2)CSSC[C@@H](C(=O)N[C@@H](Cc2ccc3ccccc3c2)C(N)=O)NC1=O [Analog #10, H2 -D-Nal-D-Cys-Tyr-D-Trp-Lys-Val-Cys-Nal-NH2] (H-[d2Nal][dC]Y[dW]KVC[2Nal]-NH2; disulfide 2-7) | 1.02 µM | 1.5 ± 0.16 µM | 3.99 ± 0.781 µM | 10 ± 3 dym × 10^3 | 4 ± 2 dym × 10^3 | 0.92 ± 0.35 µM |  |  |  |  |  |  |  | completely inhibited |  |
| CC(C)[C@@H]1NC(=O)[C@H](CCCCN)NC(=O)[C@@H](Cc2c[nH]c3ccccc23)NC(=O)[C@H](Cc2ccc(O)cc2)NC(=O)[C@@H](NC(=O)[C@H](N)Cc2ccccc2)CSSC[C@@H](C(=O)N[C@@H](Cc2ccc3ccccc3c2)C(N)=O)NC1=O [Analog #4, H2 -D-Phe-Cys-Tyr-D-Trp-Lys-Val-Cys-Nal-NH2] (H-[dF]CY[dW]KVC[2Nal]-NH2; disulfide 2-7) | 0.65 ± 0.13 µM | 2 ± 0.15 µM | 3.76 ± 0.568 µM | 13 ± 1 dym × 10^3 | 33 ± 4 dym × 10^3 | 0.245 ± 0.13 µM |  |  |  |  |  |  |  |  |  |
| CC(C)[C@@H]1NC(=O)[C@H](CCCCN)NC(=O)[C@@H](Cc2c[nH]c3ccccc23)NC(=O)[C@H](Cc2ccc(O)cc2)NC(=O)[C@@H](NC(=O)[C@H](N)Cc2ccc3ccccc3c2)CSSC[C@H](C(=O)N[C@@H](Cc2ccc3ccccc3c2)C(N)=O)NC1=O [Analog #11, H2 -D-Nal-Cys-Tyr-D-Trp-Lys-Val-D-Cys-Nal-NH2] (H-[d2Nal]CY[dW]KV[dC][2Nal]-NH2; disulfide 2-7) | > 10 µM | 7.62 ± 1.26 µM | 1.43 ± 0.119 µM | 10 ± 1 dym × 10^3 | 7 ± 4 dym × 10^3 | 0.23 ± 0.07 µM |  |  |  |  |  | 1.2 to 1.8 µM |  | completely inhibited | > 50 fold |
| CC(C)[C@@H]1NC(=O)[C@H](CCCCN)NC(=O)[C@@H](Cc2c[nH]c3ccccc23)NC(=O)[C@H](Cc2ccc(O)cc2)NC(=O)[C@@H](NC(=O)[C@H](N)Cc2c[nH]c3ccccc23)CSSC[C@@H](C(=O)N[C@@H](Cc2ccc3ccccc3c2)C(N)=O)NC1=O [Analog #12, H2 -D-Trp-Cys-Tyr-D-Trp-Lys-Val-Cys-Nal-NH2] (H-[dW]CY[dW]KVC[2Nal]-NH2; disulfide 2-7) | > 10 µM | 2.1 ± 0.15 µM | 4.69 ± 0.927 µM | 9 ± 2 dym × 10^3 | 43 ± 2 dym × 10^3 | 1.18 ± 0.52 µM |  |  |  |  |  |  |  |  |  |
